Structures can show the parent of a compound that is named as a salt. Where two headings read alike, the source gives them in different places.
Molecular target: T1, LmxCLK1 (Leishmania mexicana, UniProt E9AMP2)
T1 sequence (E9AMP2 1-422): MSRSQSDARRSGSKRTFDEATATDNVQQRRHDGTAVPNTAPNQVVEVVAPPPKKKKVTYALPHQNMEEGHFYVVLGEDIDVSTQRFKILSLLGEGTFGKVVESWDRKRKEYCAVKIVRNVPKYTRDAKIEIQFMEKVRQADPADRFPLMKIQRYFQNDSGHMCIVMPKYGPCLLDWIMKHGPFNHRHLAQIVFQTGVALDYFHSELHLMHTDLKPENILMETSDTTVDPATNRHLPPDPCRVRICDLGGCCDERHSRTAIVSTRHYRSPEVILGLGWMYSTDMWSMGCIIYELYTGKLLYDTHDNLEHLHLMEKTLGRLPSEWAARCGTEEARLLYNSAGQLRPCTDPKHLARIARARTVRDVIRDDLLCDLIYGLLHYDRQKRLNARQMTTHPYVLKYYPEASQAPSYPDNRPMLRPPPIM
Experiment: biochemical
Format: binding

[1] = DSF, 10 µM compound, 2 µM LmxCLK1, Run 1
[2] = DSF, 10 µM compound, 2 µM LmxCLK1, Run 2
[3] = DSF, 10 µM compound, 2 µM LmxCLK1, mean of two runs
[4] = DSF, 10 µM compound, 2 µM LmxCLK1, Run 1, read-out: ΔTm Run 1
[5] = DSF, 10 µM compound, 2 µM LmxCLK1, Run 2, read-out: ΔTm Run 2
[6] = DSF, 10 µM compound, 2 µM LmxCLK1, mean of two runs, read-out: ΔTm Average

SMILES | ΔTm Run 1 [1] [°C] | ΔTm Run 2 [2] [°C] | ΔTm Average [3] [°C] | ΔTm at 10 µM [4] [°C] | ΔTm at 10 µM [5] [°C] | ΔTm at 10 µM [6] [°C] | further results
Cc1cc(F)c(Nc2ncnc3cc(OCc4ccccc4)ccc23)cc1O.Cl [ZM 323881 HCl] | 0.1 | 0.0 | 0.0 |  |  |  | 
COC(=O)Nc1ccc(-c2nc(N3CCOCC3)c3cnn(C4CCN(C(=O)OC)CC4)c3n2)cc1 [WYE-354] | -0.1 | -0.2 | -0.1 |  |  |  | 
O=C(NC[C@H](O)CO)c1ccncc1Nc1ccc(I)cc1F [Pimasertib (AS-703026)] | 0.2 | -0.1 | 0.0 |  |  |  | 
O=c1cc(CN2CCOCC2)occ1OCCCCCSc1ccnc2cc(C(F)(F)F)ccc12 [EHT 1864] | 0.1 | -0.3 | -0.1 |  |  |  | 
CC(C)CCN1c2nc(Nc3cc(F)c(O)c(F)c3)ncc2N(C)C(=O)C1C (stereo not drawn) [BI-D1870] | 0.4 | 0.0 | 0.2 |  |  |  | 
C=CC(=O)Nc1cccc(Oc2nc(Nc3ccc(N4CCN(C)CC4)cc3OC)ncc2Cl)c1 [WZ4002] |  |  |  | -0.1 | -0.3 | -0.2 | 
CCN1CCN(Cc2ccc(Nc3ncc(F)c(-c4cc(F)c5nc(C)n(C(C)C)c5c4)n3)nc2)CC1 [LY2835219] |  |  |  | 2.2 | 2.1 | 2.2 | 
CO[C@H]1C[C@@H]2CC[C@@H](C)[C@@](O)(O2)C(=O)C(=O)N2CCCC[C@H]2C(=O)O[C@H]([C@H](C)C[C@@H]2CC[C@@H](OC(=O)C(C)(CO)CO)[C@H](OC)C2)CC(=O)[C@H](C)/C=C(\C)[C@@H](O)[C@@H](OC)C(=O)[C@H](C)C[C@H](C)/C=C/C=C/C=C/1C [Temsirolimus (CCI-779)] | -0.1 | -0.3 | -0.2 |  |  |  | 
C[C@@H]1CN(CC(=O)Nc2ccc3c(c2)Cc2cccc(-c4cc(=O)cc(N5CCOCC5)o4)c2S3)C[C@H](C)O1 [KU-60019] |  |  |  | -0.1 | -0.2 | -0.1 | 
CN(C)Cc1cccc(N/C(=C2\C(=O)Nc3cc(C(=O)N(C)C)ccc32)c2ccccc2)c1 [BIX 02189] |  |  |  |  |  |  | ΔTm Average: -0.3; ΔTm Run 1: -0.2; ΔTm Run 2: -0.4
COc1cc2ncc(-c3ccccc3)nc2cc1OC [Tyrphostin AG 1296] | 0.3 | 0.1 | 0.2 |  |  |  | 
N#Cc1c(Oc2ccc(F)c(NC(=O)Cc3cccc(C(F)(F)F)c3)c2)ccc2nc(NC(=O)C3CC3)sc12 [TAK-632] | 0.2 | 0.1 | 0.1 |  |  |  | 
C=CC(=O)Nc1cccc(Nc2nc(Nc3ccc(N4CCN(C(C)=O)CC4)cc3OC)ncc2C(F)(F)F)c1 [CO-1686 (AVL-301)] | 0.0 | -0.3 | -0.1 |  |  |  | 
Cc1cc(Nc2nc(N[C@@H](C)c3ncc(F)cn3)ncc2Cl)n[nH]1 [AZD1480] |  |  |  | 0.6 | 0.5 | 0.6 | 
O=C(Nc1cccc(Cl)c1)Nc1ncc(CCNc2ncnc3ccsc23)s1 [SNS-314 Mesylate] |  |  |  | 3.6 | 8.3 | 5.9 | 
CCn1c2ccccc2c2cc(Nc3ccnc(NCCCN4CCOCC4)n3)ccc21 [EHop-016] | -0.1 | 0.0 | 0.0 |  |  |  | 
C=CC(=O)Nc1cc(Nc2nccc(-c3cn(C)c4ccccc34)n2)c(OC)cc1N(C)CCN(C)C [AZD9291] |  |  |  | 0 | -0.3 | -0.2 | 

Reference: paper PMC7619385 (ACS infectious diseases, 2025)
